{"source": "patent EP0283151A2", "about": "“Prostaglandins useful for lowering intraocular pressure” (ALLERGAN, INC, priority 1987, dated 1988)", "key": {"[1]": {"test": "Duration of IOP-lowering action in cats after topical application", "assay_type": "in vivo", "parameters": "unit not given here", "conditions": "topical 0.1%, 25μL", "protocol": "(§1) The ocular hypotensive activity of these compounds was measured by applanation pneumatonometry.\nThe duration of action of the triester (9,11,15-triacetyl ester) in comparison with that of the native PGF2α was tested in cats."}, "[2]": {"test": "IOP effects in conscious rabbits, applanation pneumatonometry", "assay_type": "in vivo, New Zealand-Dutch Belt cross rabbits", "parameters": "IOP (Test): unit not given here", "conditions": "for IOP (Test): treated eye; for concentration having the same effect in lowering intraocular pressure: solution applied to the eye", "protocol": "as §1\nThe effect of 0.1 percent PGF2α on IOP versus 0.01% solution of the 9,11,15 triacetyl ester of PGF2α was measured in New Zealand-Dutch Belt cross rabbits. Intraocular pressure was measured by applanation pneumatonometry in conscious animals. Nine animals were used for each experiment. The data from this study as summarized in Table I show about a 10-fold difference in the activity of 9,11,15-triacetyl PGF2α compound over PGF2α."}}, "note": "Marks after values point to notes of the source that are not given here.", "data": [{"smiles": "CCCCC[C@H](O)/C=C/[C@@H]1[C@@H](C/C=C\\CCCC(=O)O)[C@@H](O)C[C@H]1O", "note": "[PGF2α, reference compound]", "values": [{"measurement": "Test IOP", "setting": "[1]; 0.0 hours", "value": 19.8}, {"measurement": "Test IOP", "setting": "[1]; 0.5 hours", "value": 18.2}, {"measurement": "Test IOP", "setting": "[1]; 1.0 hours", "value": "15.4*"}, {"measurement": "Test IOP", "setting": "[1]; 2.0 hours", "value": "14.5*"}, {"measurement": "Test IOP", "setting": "[1]; 3.0 hours", "value": "15.3*"}, {"measurement": "Test IOP", "setting": "[1]; 4.0 hours", "value": "16.7*"}, {"measurement": "Test IOP", "setting": "[1]; 6.0 hours", "value": 21.5}, {"measurement": "Test IOP", "setting": "[1]; 24.0 hours", "value": 19.8}, {"measurement": "Test IOP", "setting": "[1]; -0.5 hours", "value": 19.7}, {"measurement": "IOP (Test)", "setting": "[2]; rabbits, 0.1% solution, 0 hours", "value": 21.67}, {"measurement": "IOP (Test)", "setting": "[2]; rabbits, 0.1% solution, 0.5 hours", "value": 23.00}, {"measurement": "IOP (Test)", "setting": "[2]; rabbits, 0.1% solution, 1.0 hours", "value": 24.00}, {"measurement": "IOP (Test)", "setting": "[2]; rabbits, 0.1% solution, 1.5 hours", "value": 24.35}, {"measurement": "IOP (Test)", "setting": "[2]; rabbits, 0.1% solution, 2.0 hours", "value": 22.67}, {"measurement": "IOP (Test)", "setting": "[2]; rabbits, 0.1% solution, 2.5 hours", "value": 20.92}, {"measurement": "IOP (Test)", "setting": "[2]; rabbits, 0.1% solution, 3.5 hours", "value": "19.50*"}, {"measurement": "IOP (Test)", "setting": "[2]; rabbits, 0.1% solution, 4.5 hours", "value": 20.75}, {"measurement": "concentration having the same effect in lowering intraocular pressure", "setting": "[2]", "value": 0.1, "unit": "%"}]}, {"smiles": "CCCCC[C@@H](/C=C/[C@H]1C(OC(C)=O)C[C@H](OC(C)=O)[C@@H]1C/C=C\\CCCC(=O)O)OC(C)=O", "note": "(stereo partly drawn) [Triester, (5Z,9α,13E,15S)-9,11,15-triacetoxyprosta-5,13-dienoic acid]", "values": [{"measurement": "Test IOP", "setting": "[1]; 0.0 hours", "value": 20.6}, {"measurement": "Test IOP", "setting": "[1]; 0.5 hours", "value": 18.6}, {"measurement": "Test IOP", "setting": "[1]; 1.0 hours", "value": "17.9*"}, {"measurement": "Test IOP", "setting": "[1]; 2.0 hours", "value": "17.0*"}, {"measurement": "Test IOP", "setting": "[1]; 3.0 hours", "value": "18.0*"}, {"measurement": "Test IOP", "setting": "[1]; 4.0 hours", "value": "17.8*"}, {"measurement": "Test IOP", "setting": "[1]; 6.0 hours", "value": "18.8*"}, {"measurement": "Test IOP", "setting": "[1]; 24.0 hours", "value": "20.0*"}, {"measurement": "Test IOP", "setting": "[1]; -0.5 hours", "value": 21.2}, {"measurement": "IOP (Test)", "setting": "[2]; rabbits, 0.01% solution, 0 hours", "value": 24.39}, {"measurement": "IOP (Test)", "setting": "[2]; rabbits, 0.01% solution, 0.5 hours", "value": 24.67}, {"measurement": "IOP (Test)", "setting": "[2]; rabbits, 0.01% solution, 1.0 hours", "value": 23.56}, {"measurement": "IOP (Test)", "setting": "[2]; rabbits, 0.01% solution, 1.5 hours", "value": "22.72*"}, {"measurement": "IOP (Test)", "setting": "[2]; rabbits, 0.01% solution, 2.0 hours", "value": "21.33*"}, {"measurement": "IOP (Test)", "setting": "[2]; rabbits, 0.01% solution, 2.5 hours", "value": "20.83*"}, {"measurement": "IOP (Test)", "setting": "[2]; rabbits, 0.01% solution, 3.5 hours", "value": "22.22*"}, {"measurement": "IOP (Test)", "setting": "[2]; rabbits, 0.01% solution, 4.5 hours", "value": 23.28}, {"measurement": "increase in potency in terms of lowering IOP compared to PGF2α", "setting": "[2]; rabbits, 0.01% triacetyl ester versus 0.1% PGF2α", "value": "~10", "unit": "fold"}, {"measurement": "concentration having the same effect in lowering intraocular pressure", "setting": "[2]", "value": 0.01, "unit": "%"}]}]}
